# In ChEMBL document CHEMBL3797140, “Acridin-3,6-dialkyldithiourea hydrochlorides as new photosensitizers for photodynamic therapy of mouse leukemia cells” (Bioorg Med Chem, 2016):
# How the values were obtained:
# [1] = system: L1210; test: Phototoxicity against mouse L1210 cells assessed as cell viability preincubated for 1 hr followed by 1.05 J/cm2 UV-A irradiation measured after 48 hrs by MTT assay; type: functional, cell-based; conditions: L1210, light or radiation study
# [2] = Dark toxicity against mouse L1210 cells assessed as cell viability after 48 hrs by MTT assay; type: cell-based
# [3] = Dark toxicity against mouse NIH/3T3 cells assessed as cell viability after 48 hrs by MTT assay; type: cell-based, NIH3T3
# [4] = Phototoxicity against mouse NIH/3T3 cells assessed as cell viability preincubated for 1 hr followed by 1.05 J/cm2 UV-A irradiation measured after 48 hrs by MTT assay; type: cell-based; conditions: NIH3T3, light or radiation study
Compound,IC50 [1],IC50 at 48 h [2],IC50 at 48 h [3],IC50 [4]
CCCCCNC(=S)Nc1ccc2cc3ccc(NC(=S)NCCCCC)cc3nc2c1,0.6 µM,9.2 µM,37.5 µM,3.7 µM
CCCCNC(=S)Nc1ccc2cc3ccc(NC(=S)NCCCC)cc3nc2c1,0.52 µM,6.6 µM,32.7 µM,2.6 µM
